Data: patent US20060165743A1, “Method and device to control and condition the behavior of the varroa destructor mite in a beehive, or in other environment where bees reproduce” (Universita' Degli Studi Di Udine, priority 2002, published 2006)

Experiments:
Varroa destructor mite [1] = test: Activity test in artificial observation plates (treated wells vs solvent control wells, each with a bee larva); type: in vivo; conditions: for AVERAGE ACTIVITY TREATED: 6 observations in 30 min, 34° C., 75% RH, dark
Method: The activity of (±)-2-hydroxyhexanoic acid and of (±)-3-hydroxyhexanoic acid, dissolved in water, was tested in a plate 10 (FIG. 1). Each plate 10 consists of a parallelepiped of sodium-calcium glass with a 70×70 mm square base, and a height of 12 mm, in which four cylindrical wells 12a, 12b, are made, each with a diameter of 7 mm and a depth of 10 mm, similar in size to bee cells. The wells 12a, 12b are equidistant from the center. At the center of the plate 10 a Varroa destructor mite was placed, indicated by the number 11. To delimit the space in which the mite 11 could move, the plates 10 were closed with a cover element 15 consisting of a glass disk joined to a stainless steel spacer ring 17. Two opposite wells 12a of each plate 10 were treated with (±)-2-hydroxyhexanoic acid or with (±)-3-hydroxyhexanoic acid, dissolved in water; the other two wells 12b, on the contrary, were used as controls and were treated only with the solvent. In each individual well 12a, 12b of the plate 10 a bee larva 20 was then placed. The biological activity test on (±)-2-hydroxyhexanoic acid provides a first test during which 1 ng of (±)-2-hydroxyhexanoic acid is tested, a second test during which 10 ng of (±)-2-hydroxyhexanoic acid are tested and a third test during which 100 ng are tested and a fourth test during which 1000 ng are tested. The biological activity test on (±)-3-hydroxyhexanoic acid provides a first test during which 10 ng of (±)-3-hydroxyhexanoic acid are tested, a second test during which 100 ng of (±)-3-hydroxyhexanoic acid are tested, and a third test during which 1000 ng are tested. At the beginning of each test the Varroa destructor mite 11, in this case a female adult, is located at the center of each plate 10 with a thin brush; each plate 10 is then closed and transferred to a thermostatic chamber. Subsequently, the position of the mite 11 was monitored every 5 minutes for a total of 30 minutes, to a total of 6 observations. 20 plates were used for every test, with 4 repetitions, to a total of 80 plates. During the tests the temperature and relative humidity were kept respectively around 34° C. and 75%; the inside of the thermostatic chamber was kept dark. The action of the substances tested on the Varroa destructor mite was evaluated by calculating an average value for the treated wells 12a and the control wells 12b, equal to the average number of times in which the Varroa destructor mite was observed inside one or the other in the 6 observations made in the course of the 30 minutes of each test. The average values thus obtained are representative, with a certain approximation, of the time spent by the mite in the two types of well 12a, 12b. The attractiveness of a substance thus determines higher average values for the treated wells 12a with respect to those of the control wells 12b.

Varroa destructor mite [2] = test: Activity test in the beehive (cells with worker bee larvae near to opercolature); type: in vivo; conditions: 100 ng in 1 μl solvent per cell, 18 hours after treatment
Method: (±)-2-hydroxyhexanoic acid was also tested in the beehive, by applying, in the cells with worker bee larvae near to opercolature, a solution of 100 ng of (±)-2-hydroxyhexanoic acid dissolved in 1 μl of a suitable solvent. The infestation of such cells was compared with that of the control cells treated with the solvent alone: the cells used were examined 18 hours after treatment and the Varroa destructor mites present in the treated cells and in the control cells were counted.

| SMILES | AVERAGE ACTIVITY TREATED (Varroa destructor mite [1]; 10 ng in treated wells) | AVERAGE ACTIVITY TREATED (Varroa destructor mite [1]; 100 ng in treated wells) | AVERAGE ACTIVITY TREATED (Varroa destructor mite [1]; 1000 ng in treated wells) | Activity on / attractiveness to the Varroa destructor mite (infestation of treated wells vs control wells), in words (Varroa destructor mite [1]; dose 100 ng) | Number of Varroa destructor mites per cell in treated cells vs non-treated cells, in words (Varroa destructor mite [2]) | N. OF VARROA DESTRUCTOR MITE PER CELL TREATED, Average (Varroa destructor mite [2]; average of 5 replications) | AVERAGE ACTIVITY TREATED (Varroa destructor mite [1]; 1 ng in treated wells) | Activity on / attractiveness to the Varroa destructor mite (infestation of treated wells vs control wells), in words (Varroa destructor mite [1]; dose 10 ng) |
| --- | --- | --- | --- | --- | --- | --- | --- | --- |
| CCCC(O)CC(=O)O (racemic) [(±)-3-hydroxyhexanoic acid] | 24.5 | 36.8 | 23.3 | active on and attractive to the Varroa destructor mite |  |  |  |  |
| CCCCCCC(O)C(=O)O (racemic) [(±)-2-hydroxyoctanoic acid, reference compound] |  | 29.5 |  | not found to be active |  |  |  |  |
| CCCCC(O)C(=O)O (racemic) [(±)-2-hydroxyhexanoic acid] | 31.8 | 34.7 | 23.0 | active on and attractive to the Varroa destructor mite | significantly greater | 0.60 | 22.3 | active on and attractive to the Varroa destructor mite |
